Each compound was assayed against T1, human renal renin (Homo sapiens, UniProt P00797) (assay: In vitro inhibition of human renal renin (angiotensin I formation measured by radioimmunoassay)). Settings: human renal renin with human renin substrate (angiotensinogen), 37° C., pH 6.0.
T1 construct: human renal renin, free from acid proteolytic activity; from tissue
T1 sequence (P00797 67-406): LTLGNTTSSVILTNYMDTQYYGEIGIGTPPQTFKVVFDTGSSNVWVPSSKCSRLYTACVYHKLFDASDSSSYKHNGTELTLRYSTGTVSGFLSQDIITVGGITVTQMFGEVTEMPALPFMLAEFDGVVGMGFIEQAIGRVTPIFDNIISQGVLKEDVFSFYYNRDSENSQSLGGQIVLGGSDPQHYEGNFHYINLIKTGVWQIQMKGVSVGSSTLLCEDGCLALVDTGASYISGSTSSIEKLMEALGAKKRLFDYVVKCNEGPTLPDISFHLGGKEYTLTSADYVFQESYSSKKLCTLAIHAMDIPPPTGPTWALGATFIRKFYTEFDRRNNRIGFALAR
Assay type: biochemical
In the case of `CC(C)C[C@H](NC(=O)[C@H](C)NC(=O)[C@H](Cc1ccccc1)NC(=O)OC(C)(C)C)C(O)C=O` (stereo partly drawn) [Example 3, Boc-Phe-Ala Amide of (3S)-Amino-2-hydroxy-5-methylhexanal], the IC50 is reported as 0.01 µM. `C[C@H](NC(=O)[C@H](Cc1ccccc1)NC(=O)OC(C)(C)C)C(=O)N[C@@H](CC1CCCCC1)[C@@H](O)CCl` [Example 14, Boc-Phe-Ala Amide of (2R,3S)-3-Amino-1-chloro-4-cyclohexyl-2-hydroxybutane] was tested, and the IC50 was 0.4 µM. For `C[C@H](NC(=O)[C@H](Cc1ccccc1)NC(=O)OC(C)(C)C)C(=O)N[C@@H](CC1CCCCC1)[C@@H](O)CBr` [Example 16, Boc-Phe-Ala Amide of (2R,3S)-3-Amino-1-bromo-4-cyclohexyl-2-hydroxybutane], the IC50 was 0.7 µM. In the case of `CC(C)CC(=O)C(O)[C@H](CC1CCCCC1)NC(=O)[C@H](Cc1cnc[nH]1)NC(=O)[C@H](Cc1ccccc1)NC(=O)OC(C)(C)C` (stereo partly drawn) [Example 19, Boc-Phe-His Amide of (2S)-Amino-1-cyclohexyl-3-hydroxy-6-methylheptan-4-one], the IC50 is reported as 0.01 µM.
